Values quoted from earlier work as cited in patent US7393522B2, “Physiologically balanced, ionized, acidic solution and methodology for use in wound healing” (NovaBay Pharmaceuticals, Inc., priority 2000, dated 2008).

Conditions: pH 5.0 to pH 8.0

pH of maximum decomposition rate: 6.89
Compound: OCl [HOCl, hypochlorous acid]
